As a reminder, the IC50 is the concentration needed to halve the response being measured. A low value points to greater potency. What is called EC50 is the concentration that produces a half-maximal response. Lower therefore signals greater potency.

This passage reports IC50, Emax and EC50 results from patent US20140057895A1, “INDAZOLE- AND PYRROLOPYRIDINE-DERIVATIVE AND PHARMACEUTICAL USE THEREOF” (priority 2011, published 2014).

The target of test [1] is T1, Human 5-HT4 receptor (5-HT4b) (Homo sapiens, UniProt Q13639).
T1 construct: expressed in transfected cells; membrane preparation
As to the kind of experiment: Test Example 3: Human 5-HT4 receptor binding assay, membranes of CHO-K1 cells stably expressing 5-HT4b receptors (Table 99). Conditions: mean value of each group. The protocol:
To an assay tube were added 0.1 nM [^3H]-GR113808 {chemical name: [1-[2-(methylsulfonylamino) ethyl]-4-piperidinyl]methyl 1-methylindole-3-carboxylate}, receptor membrane preparations, and Hepes buffer (50 mM, pH 7.4, 4° C., 1 ml) containing test compounds or 30 μM serotonin; and the mixture was incubated at 37° C. for 30 minutes. On quenching the reaction, the mixture was rapidly filtered on whatman GF/B filter, which was presoaked in 0.1% polyethyleneimine for 1 hour, by using Brandel cell Harvester, and washed with ice-cooled 50 mM Tris-HCl (pH 7.7, 4 ml) three times. To the filter after filtration was added a liquid scintillator (Ecoscint), and then a radioactivity was determined by a liquid scintillation counter.
50% Inhibition concentrations (IC50) were determined from inhibition rates of test compounds to specific bindings which were obtained by subtracting nonspecific bindings from total binding amounts of [^3H]-GR113808.
Human 5-HT4 receptor membrane preparations were prepared from CHO-K^1 cells which stably express 5-HT4b receptors, and human 5-HT4 receptor binding assay was carried out in a similar manner as in the guinea pig 5-HT4 receptor binding assay. The following tables show results of serotonin 4 (5-HT4) receptor binding assay. In the following tables, the compounds used in the test are shown in numbers which correspond to the Example numbers above where the preparations of the compounds are described.

Another test concerns the target T2, human 5-HT4b receptor (Homo sapiens, UniProt Q13639).
T2 construct: expressed in transfected cells; host or cells: CHO cells (G418 selection)
In words: Test Example 4: Serotonin 4 (5-HT4) receptor agonist activity assay, cAMP HTRF in CHO cells (Table 100). It is filed as cell-based. Conditions: mean value; for Emax: CHO, 0.25 h, intrinsic activity, maximal activity of 5-HT defined as 100%, read-out: IA (%); for EC50: concentration showing 50% of IA. Put shortly:
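Read-out is HTRF cAMP (time-resolved fluorescence 620/665 nm after 1 h RT with cAMP-cryptate and cAMP-d2), from recombinant CHO cells bearing human 5-HT4b treated with compound 15 min at 31° C. in Hanks/HEPES buffer pH 7.4. IA (%) scaled to peak 5-HT effect over 10^−11–10^−7 M; EC50 is concentration giving half that IA.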
In general terms: TR-FRET usually uses a lanthanide donor and a delayed reading to cut background.

T2 sequence (Q13639 whole entry): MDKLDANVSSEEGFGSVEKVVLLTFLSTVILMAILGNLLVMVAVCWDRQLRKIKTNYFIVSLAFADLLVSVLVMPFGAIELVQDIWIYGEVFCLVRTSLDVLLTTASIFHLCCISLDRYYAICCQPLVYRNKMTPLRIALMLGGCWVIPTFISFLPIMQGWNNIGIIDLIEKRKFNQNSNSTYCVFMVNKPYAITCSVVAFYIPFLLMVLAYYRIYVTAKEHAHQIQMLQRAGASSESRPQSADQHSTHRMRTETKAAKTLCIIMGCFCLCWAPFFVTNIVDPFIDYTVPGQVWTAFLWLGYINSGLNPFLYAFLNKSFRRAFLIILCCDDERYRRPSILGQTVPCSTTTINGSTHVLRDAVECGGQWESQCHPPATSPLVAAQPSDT
T1 sequence (Q13639 whole entry): as above

With `CC(C)c1nn(-c2noc([C@H]3C[C@@H](NCC4CCCO4)C3)n2)c2c(F)cccc12` (relative stereo) [Example 596, cis-3-{3-[7-fluoro-3-(propan-2-yl)-1H-indazol-1-yl]-1,2,4-oxadiazol-5-yl}-N-(tetrahydrofuran-2-ylmethyl)cyclobutanamine], the IC50 in test [1] is under 20 nM. Besides, on human 5-HT4b receptor, the Emax is 82% and the EC50 was found to be 4.1 nM.
The corresponding values for `CC(C)c1nn(-c2noc([C@H]3CC[C@@H](NC4CCN(S(C)(=O)=O)C4)CC3)n2)c2c(F)cccc12` (relative stereo) [Example 616, N-(cis-4-{3-[7-fluoro-3-(propan-2-yl)-1H-indazol-1-yl]-1,2,4-oxadiazol-5-yl}cyclohexyl)-1-(methylsulfonyl)pyrrolidin-3-amine] are under 20 nM, 105% and 13 nM.
In test [1], `CC(=O)N1CCC(N2C3CCC2CC(c2nc(-n4nc(C(C)C)c5cccc(F)c54)no2)C3)CC1` (stereo not shown) [Example 419, 1-{4-[3-{3-[7-fluoro-3-(propan-2-yl)-1H-indazol-1-yl]-1,2,4-oxadiazol-5-yl}-8-azabicyclo[3.2.1]oct-8-yl]piperidin-1-yl}ethanone] displayed an IC50 of 63.8 nM. Besides, on human 5-HT4b receptor, the Emax came to 110% and the EC50 worked out at 10.4 nM.
Take `CC(=O)N1CCC(C)(N2CCC(c3nc(-n4nc(C(C)C)c5cccc(F)c54)no3)CC2)CC1` [Example 487, 1-(4-{3-[7-fluoro-3-(propan-2-yl)-1H-indazol-1-yl]-1,2,4-oxadiazol-5-yl}-4′-methyl-1,4′-bipiperidin-1′-yl)ethanone]: in test [1], the IC50 is under 20 nM. Besides, on human 5-HT4b receptor, the Emax turned out to be 70% and the EC50 was 3.2 nM.
For `CC(C)c1nn(-c2noc(C3CCN(C4(C)CCN(S(C)(=O)=O)CC4)CC3)n2)c2c(F)cccc12` [Example 488, 4-{3-[7-fluoro-3-(propan-2-yl)-1H-indazol-1-yl]-1,2,4-oxadiazol-5-yl}-4′-methyl-1′-(methylsulfonyl)-1,4′-bipiperidine], in test [1], the IC50 is under 20 nM. In addition, on human 5-HT4b receptor, the Emax was 106% and the EC50 turned out to be 2.9 nM.
The corresponding values for `CC(C)c1nn(-c2noc(C3CCN(C4(C)CCN(C(=O)N(C)C)CC4)CC3)n2)c2c(F)cccc12` [Example 489, 4-{3-[7-fluoro-3-(propan-2-yl)-1H-indazol-1-yl]-1,2,4-oxadiazol-5-yl}-N,N,4′-trimethyl-1,4′-bipiperidine-1′-carboxamide] are under 20 nM, 104% and 2.5 nM.
The corresponding values for `COCC(=O)N1CCC(C)(N2CCC(c3nc(-n4nc(C(C)C)c5cccc(F)c54)no3)CC2)CC1` [Example 490, 1-(4-{3-[7-fluoro-3-(propan-2-yl)-1H-indazol-1-yl]-1,2,4-oxadiazol-5-yl}-4′-methyl-1,4′-bipiperidin-1′-yl)-2-methoxyethanone] are under 20 nM, 111% and 1.6 nM.
Compound `CCc1nn(-c2noc(C3CCN(C4(C)CCN(C(C)=O)CC4)CC3)n2)c2c(F)cccc12` [Example 491, 1-{4-[3-(3-ethyl-7-fluoro-1H-indazol-1-yl)-1,2,4-oxadiazol-5-yl]-4′-methyl-1,4′-bipiperidin-1′-yl}ethanone] had a half-inhibitory concentration (IC50) in test [1] of under 20 nM. Moreover, on human 5-HT4b receptor, the Emax came to 91% and the EC50 is 4.4 nM.
In test [1], `CCc1nn(-c2noc(C3CCN(C4(C)CCN(S(C)(=O)=O)CC4)CC3)n2)c2c(F)cccc12` [Example 492, 4-[3-(3-ethyl-7-fluoro-1H-indazol-1-yl)-1,2,4-oxadiazol-5-yl]-4′-methyl-1′-(methylsulfonyl)-1,4′-bipiperidine] showed a concentration for half-maximal inhibition (IC50) of under 20 nM. For the same compound, at human 5-HT4b receptor, the Emax is 78% and the EC50 came to 2.9 nM.
`CCc1nn(-c2noc(C3CCN(C4(C)CCN(C(=O)N(C)C)CC4)CC3)n2)c2c(F)cccc12` [Example 493, 4-[3-(3-ethyl-7-fluoro-1H-indazol-1-yl)-1,2,4-oxadiazol-5-yl]-N,N,4′-trimethyl-1,4′-bipiperidine-1′-carboxamide] showed a half-maximal inhibitory concentration (IC50) in test [1] of under 20 nM. At human 5-HT4b receptor, the Emax is 75% and it took 1.5 nM to reach a half-maximal effect (EC50).
Regarding `CCc1nn(-c2noc(C3CCN(C4(C)CCN(C(=O)COC)CC4)CC3)n2)c2c(F)cccc12` [Example 494, 1-{4-[3-(3-ethyl-7-fluoro-1H-indazol-1-yl)-1,2,4-oxadiazol-5-yl]-4′-methyl-1,4′-bipiperidin-1′-yl}-2-methoxyethanone], the IC50 in test [1] is under 20 nM. On human 5-HT4b receptor, the Emax is 72% and the EC50 was determined as 2.1 nM.
In turn, `CC(C)c1nn(-c2noc(C[C@H]3CCN(C4CCN(S(C)(=O)=O)CC4)C3)n2)c2c(F)cccc12` [Example 496, 7-fluoro-1-[5-({(3R)-1-[1-(methylsulfonyl)piperidin-4-yl]pyrrolidin-3-yl}methyl)-1,2,4-oxadiazol-3-yl]-3-(propan-2-yl)-1H-indazole] showed an IC50 in test [1] of under 20 nM. Moreover, at human 5-HT4b receptor, the Emax stood at 70% and the response was half-maximal at 2.2 nM (EC50).
Compound `CC(=O)N1CCC[C@H]1CN1CC[C@H](Cc2nc(-n3nc(C(C)C)c4cccc(F)c43)no2)C1` [Example 497, 1-[(2S)-2-{[(3R)-3-({3-[7-fluoro-3-(propan-2-yl)-1H-indazol-1-yl]-1,2,4-oxadiazol-5-yl}methyl)pyrrolidin-1-yl]methyl}pyrrolidin-1-yl]ethanone] registered an IC50 in test [1] of 76.1 nM. Further, at human 5-HT4b receptor, the Emax came to 88% and the EC50 was found to be 5.8 nM.
Compound `CC(C)c1nn(-c2noc(C[C@H]3CCN(C[C@@H]4CCCN4S(C)(=O)=O)C3)n2)c2c(F)cccc12` [Example 498, 7-fluoro-1-(5-{[(3R)-1-{[(2S)-1-(methylsulfonyl)pyrrolidin-2-yl]methyl}pyrrolidin-3-yl]methyl}-1,2,4-oxadiazol-3-yl)-3-(propan-2-yl)-1H-indazole] displayed a concentration for half-maximal inhibition (IC50) in test [1] of under 20 nM. Further, on human 5-HT4b receptor, the Emax turned out to be 36% and the EC50 was found to be 3.4 nM.
On to `CC(=O)N1CCC[C@@H]1CN1CC[C@H](Cc2nc(-n3nc(C(C)C)c4cccc(F)c43)no2)C1` [Example 499, 1-[(2R)-2-{[(3R)-3-({3-[7-fluoro-3-(propan-2-yl)-1H-indazol-1-yl]-1,2,4-oxadiazol-5-yl}methyl)pyrrolidin-1-yl]methyl}pyrrolidin-1-yl]ethanone], for which the IC50 in test [1] came to 48.6 nM. On human 5-HT4b receptor, the Emax was 82% and the EC50 came to 7.8 nM.
Consider `CC(C)c1nn(-c2noc(C[C@H]3CCN(C[C@H]4CCCN4S(C)(=O)=O)C3)n2)c2c(F)cccc12` [Example 500, 7-fluoro-1-(5-{[(3R)-1-{[(2R)-1-(methylsulfonyl)pyrrolidin-2-yl]methyl}pyrrolidin-3-yl]methyl}-1,2,4-oxadiazol-3-yl)-3-(propan-2-yl)-1H-indazole], for which the concentration for half-maximal inhibition (IC50) in test [1] was under 20 nM. Besides, on human 5-HT4b receptor, the Emax was determined as 90% and the EC50 came to 14.4 nM.
Compound `CC(=O)N1CC(CN2CC[C@H](Cc3nc(-n4nc(C(C)C)c5cccc(F)c54)no3)C2)C1` [Example 501, 1-(3-{[(3R)-3-({3-[7-fluoro-3-(propan-2-yl)-1H-indazol-1-yl]-1,2,4-oxadiazol-5-yl}methyl)pyrrolidin-1-yl]methyl}azetidin-1-yl)ethanone] gave an IC50 in test [1] of under 20 nM. Moreover, at human 5-HT4b receptor, the Emax was found to be 84% and it took 3.5 nM to reach a half-maximal effect (EC50).
The corresponding values for `CC(C)c1nn(-c2noc(C[C@H]3CCN(CC4CN(S(C)(=O)=O)C4)C3)n2)c2c(F)cccc12` [Example 502, 7-fluoro-1-(5-{[(3R)-1-{[1-(methylsulfonyl)azetidin-3-yl]methyl}pyrrolidin-3-yl]methyl}-1,2,4-oxadiazol-3-yl)-3-(propan-2-yl)-1H-indazole] are under 20 nM, 70% and 3.5 nM.
Consider `CC(=O)N1CC[C@@H](CN2CC[C@H](Cc3nc(-n4nc(C(C)C)c5cccc(F)c54)no3)C2)C1` [Example 503, 1-[(3S)-3-{[(3R)-3-({3-[7-fluoro-3-(propan-2-yl)-1H-indazol-1-yl]-1,2,4-oxadiazol-5-yl}methyl)pyrrolidin-1-yl]methyl}pyrrolidin-1-yl]ethanone], for which the IC50 in test [1] is under 20 nM. Also, on human 5-HT4b receptor, the Emax worked out at 98% and a half-maximal response (EC50) required 5 nM.
Consider `COc1nn(-c2noc(C3CCN(C4CCN(C(C)=O)CC4)CC3)n2)c2c(F)cccc12` [Example 624, 1-{4-[3-(7-fluoro-3-methoxy-1H-indazol-1-yl)-1,2,4-oxadiazol-5-yl]-1,4′-bipiperidin-1′-yl}ethanone], for which, in test [1], the IC50 was under 20 nM.
